One assay deals with T1, COX II (Homo sapiens, UniProt P35354).
T1 construct: made in house
T1 sequence (P35354 18-604): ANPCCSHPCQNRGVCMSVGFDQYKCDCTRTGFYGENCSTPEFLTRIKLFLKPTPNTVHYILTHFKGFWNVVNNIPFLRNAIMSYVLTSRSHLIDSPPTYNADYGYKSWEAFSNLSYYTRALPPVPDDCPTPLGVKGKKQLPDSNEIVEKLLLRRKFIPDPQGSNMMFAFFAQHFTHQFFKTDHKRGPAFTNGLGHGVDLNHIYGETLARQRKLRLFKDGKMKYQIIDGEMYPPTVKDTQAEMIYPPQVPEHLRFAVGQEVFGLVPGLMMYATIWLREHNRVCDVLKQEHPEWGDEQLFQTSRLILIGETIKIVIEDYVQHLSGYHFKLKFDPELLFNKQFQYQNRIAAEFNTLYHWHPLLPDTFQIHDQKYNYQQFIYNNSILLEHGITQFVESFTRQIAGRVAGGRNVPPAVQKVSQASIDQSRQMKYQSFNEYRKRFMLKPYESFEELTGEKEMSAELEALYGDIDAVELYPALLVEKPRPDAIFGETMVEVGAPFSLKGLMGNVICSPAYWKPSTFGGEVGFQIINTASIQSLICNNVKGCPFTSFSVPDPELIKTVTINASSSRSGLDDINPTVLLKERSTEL
Nature of the assay: Inhibition of COX II in vitro, radiometric assay with partially purified enzyme. The class given is biochemical. Particulars: 10 min preincubation, 20 micromolar [14C] arachidonic acid. On the procedure: (§1) The COX I and COX II inhibitory activity of compounds of this invention in vitro was determined using partially purified COX I and COX II enzymes, prepared as described in J. Bamett et al., Biochim. Biophys. Acta, 1209,130-139 (1994).
(§2) COX I and COX II samples were diluted with Tris-HCl buffer (50 mM Tris-HCl, pH 7.9) containing 2 mM EDTA and 10% glycerol and reconstituted by incubating first with 2 mM phenol for 5 minutes and then with 1 micromolar hematin for an additional 5 minutes. 125 μL of the reconstituted COX I or COX II enzyme were preincubated for 10 minutes at room temperature in a shaking water bath with the compounds of the invention dissolved in 2-15 μL of DMSO or the carrier vehicles (control samples). The enzyme reaction was initiated by adding 25 μL of 1-[14 C] arachidonic acid (80,000-100,000 cpm/tube; 20 micromolar final concentration) and the reaction was allowed to continue for an additional 45 seconds. The reaction was terminated by adding 100 μL is of 2N HCl and 750 μL water. An aliquot (950 μL) of the reaction mixture was loaded onto a 1 mL C18 Sep-Pak column (J. T. Baker, Phillipsburg, N.J.) which had been previously washed with 2-3 mL methanol and equilibrated with 5-6 mL distilled water. Oxygenated products were quantitatively eluted with 3 mL of acetonitrile/water/acetic acid (50:50:0.1, v/v) and the radioactivity in the eluate determined in a scintillation counter. Compounds of this invention were active in this assay for COX II.
(§3) The COX inhibitory activities (expressed as IC50, the concentration causing 50% inhibition of the COX enzyme being assayed) of some exemplary compounds of the invention were: […]

The next assay has as its target T2, COX I (Homo sapiens, UniProt P23219).
T2 construct: made in house
Nature of the assay: Inhibition of COX I in vitro, radiometric assay with partially purified enzyme. The class given is biochemical. As to conditions: 10 min preincubation, 20 micromolar [14C] arachidonic acid. As for the experimental part:
as §1, §2, §3

The values that follow come from patent US6433005B1, “Benzofuran and benzothiophene derivatives as anti-inflammatory agents” (Syntex (U.S.A.) LLC, priority 2000, dated 2002).

T2 sequence (P23219 24-599): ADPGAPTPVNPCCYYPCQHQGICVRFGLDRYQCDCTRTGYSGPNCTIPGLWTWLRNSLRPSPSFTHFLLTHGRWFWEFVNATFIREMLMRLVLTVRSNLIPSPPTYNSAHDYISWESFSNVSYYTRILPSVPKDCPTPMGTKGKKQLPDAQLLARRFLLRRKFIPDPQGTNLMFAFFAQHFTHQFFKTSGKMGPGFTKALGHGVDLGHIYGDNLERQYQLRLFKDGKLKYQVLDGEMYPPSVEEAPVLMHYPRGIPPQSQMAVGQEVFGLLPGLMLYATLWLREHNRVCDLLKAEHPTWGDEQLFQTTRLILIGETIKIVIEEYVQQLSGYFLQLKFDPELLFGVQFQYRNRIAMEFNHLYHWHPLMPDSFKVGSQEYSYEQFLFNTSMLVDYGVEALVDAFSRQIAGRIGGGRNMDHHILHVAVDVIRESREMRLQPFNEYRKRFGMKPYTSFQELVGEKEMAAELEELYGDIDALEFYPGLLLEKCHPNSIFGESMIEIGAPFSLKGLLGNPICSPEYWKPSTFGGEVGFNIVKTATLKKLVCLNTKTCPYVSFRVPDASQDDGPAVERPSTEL

Consider `CS(=O)(=O)c1ccc2c(Sc3ccccc3Cl)c(C#N)sc2c1` [Cpd 17, 3-(2-chloro-phenylsulfanyl)-6-methanesulfonyl-benzo[b]thiophene-2-carbonitrile], for which the results for the IC50 at COX II and on COX I were under 1 µM and over 120 µM, respectively.

With `CS(=O)(=O)c1ccc2c(Sc3ccc(Cl)cc3Cl)c(C#N)sc2c1` [Cpd 19, 3-(2,4-dichloro-phenylsulfanyl)-6-methanesulfonyl-benzo[b]thiophene-2-carbonitrile], the IC50 against COX II is under 1.5 µM; against COX I it was over 120 µM.

Consider `CS(=O)(=O)c1ccc2c(Sc3ccc(F)cc3)c(C#N)sc2c1` [Cpd 26, 3-(4-fluoro-phenylsulfanyl)-6-methanesulfonyl-benzo[b]thiophene-2-carbonitrile], for which the half-inhibitory concentration (IC50) against COX II was under 1.5 µM; on COX I it was over 120 µM.

In the case of `CS(=O)(=O)c1ccc2c(Sc3ccccc3F)c(C#N)sc2c1` [Cpd 30, 3-(2-fluoro-phenylsulfanyl)-6-methanesulfonyl-benzo[b]thiophene-2-carbonitrile], the IC50 is under 1.2 µM at COX II and over 120 µM against COX I.

In the case of `CCOc1ccc(Oc2c(C#N)sc3cc(S(C)(=O)=O)ccc23)cc1` [Cpd 31, 3-(4-ethoxy-phenoxy)-6-methanesulfonyl-benzo[b]thiophene-2-carbonitrile], the figures for the IC50 at COX II and at COX I were under 1.5 µM and over 120 µM, respectively.
